Tests used:
kappa opioid receptors = biological target: T1, kappa opioid receptors (Mus musculus, UniProt P33534); assay: Tail-flick assay, antagonism of analgesia produced by selective kappa opioid agonists (U50488H, Bremazocine, U69593); type: in vivo, ICR-CD1 mice; conditions: mice, i.c.v.; for antagonism of the analgesia produced by selective kappa opioid agonists (% MPE): agonists U50488H, Bremazocine, U69593
T1 construct: from tissue; host or cells: living ICR-CD1 mice (central nervous system, i.c.v. dosing)
Procedure: (§1) The testing protocol involved the tail-flick assay. For the measurement of the tail-flick latency, ICR-CD1 mice, mice were held gently in one hand with the tail positioned in the apparatus (Tail Flick Analgesia Meter, Columbus Instruments, Columbus, Ohio) for radiant heat stimulus. The tail-flick response was elicited by applying radiant heat to the dorsal side of the tail. The intensity of the heat was set so that the mouse flicks its tail within 2 to 3 seconds. The test latency was measured before treatment of the agonist control, and again after the antagonist treatment at the time of peak agonist activity.
(§2) At least three groups of four to ten mice were used for each dose response curve. ED50 values with 95% confidence intervals (C.I.) were computed with GraphPad Prism 4 using nonlinear regression methods. […] Antinociception was quantified as the percent maximal possible effect (% MPE), which is calculated as: % MPE=(Test−Control/10−Control)×100. GNTI.2HCl or GNTI.2LA. The data for the dihydrochloride salt (Sigma GNTI2HCl) and the di-lipoic acid salt, GNTI.2LA (identified as WY-120) are shown in FIGS. 1 and 2. The data are expressed as bar graphs that indicate the % maximum possible effect (% MPE) of GNTI-.2HCl or GNTI.2LA in antagonizing the analgesia produced by selective kappa opioid agonists (U50488H, Bremazocine, U69593) or delta opioid agonists (DPDPE, DEL II) by the intracerebroventricular (i.c.v.) route of administration to mice.

[1] = biological target: T2, (Mus musculus, UniProt P32300); assay: Tail-flick assay, antagonism of analgesia produced by delta opioid agonists (DPDPE, DEL II); type: in vivo, ICR-CD1 mice; conditions: mice, i.c.v.
T2 construct: by the intracerebroventricular (i.c.v.) route of administration to mice; from tissue; host or cells: living ICR-CD1 mice (central nervous system, i.c.v. dosing)
Procedure: as §1
as §2, with “The data for the dihydrochloride salt (Sigma GNTI2HCl) and the di-lipoic acid salt, GNTI.2LA (identified as WY-120) are shown in FIGS. 1 and 2.” left out

insulin sensitivity [2] = conditions: 72 patients with type 2 diabetes, oral administration, after four weeks of treatment; cited from earlier work
insulin sensitivity [3] = conditions: 20 patients with type 2 diabetes, intravenous infusion for ten days, measured 24 hours after the last infusion; cited from earlier work
[4] = system: insulin-stimulated glucose disposal; conditions: 13 patients with type 2 diabetes, single intravenous infusion; cited from earlier work

T1 sequence (P33534 whole entry): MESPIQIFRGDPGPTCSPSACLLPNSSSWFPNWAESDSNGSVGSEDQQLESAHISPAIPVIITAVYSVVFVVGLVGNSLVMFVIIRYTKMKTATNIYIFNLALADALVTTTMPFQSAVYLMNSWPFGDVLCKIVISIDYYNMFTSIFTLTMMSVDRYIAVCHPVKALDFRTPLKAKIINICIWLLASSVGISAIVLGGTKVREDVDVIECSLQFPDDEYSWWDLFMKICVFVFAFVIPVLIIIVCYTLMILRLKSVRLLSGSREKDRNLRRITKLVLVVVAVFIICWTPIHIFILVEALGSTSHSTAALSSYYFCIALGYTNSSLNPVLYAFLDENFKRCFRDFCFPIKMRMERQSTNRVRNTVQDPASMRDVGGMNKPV
T2 sequence (P32300 whole entry): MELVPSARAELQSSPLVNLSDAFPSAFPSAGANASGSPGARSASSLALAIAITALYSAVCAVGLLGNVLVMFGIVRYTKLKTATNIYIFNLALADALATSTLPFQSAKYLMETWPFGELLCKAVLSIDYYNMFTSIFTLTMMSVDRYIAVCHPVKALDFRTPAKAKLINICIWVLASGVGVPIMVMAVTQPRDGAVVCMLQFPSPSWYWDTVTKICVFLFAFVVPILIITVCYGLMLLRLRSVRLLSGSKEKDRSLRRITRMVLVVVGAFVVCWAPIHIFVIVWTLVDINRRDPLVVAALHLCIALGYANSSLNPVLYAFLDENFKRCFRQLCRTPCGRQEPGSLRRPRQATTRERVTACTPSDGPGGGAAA

| SMILES | kappa opioid antagonist selectivity compared with GNTI.2HCl (kappa opioid receptors; kappa versus delta agonists) | antagonism of the analgesia produced by selective kappa opioid agonists (% MPE) (kappa opioid receptors) | antagonism of the analgesia produced by delta opioid agonists (% MPE) [1] | improvement of insulin sensitivity (insulin sensitivity [2]) [%] | insulin sensitivity (insulin sensitivity [3]) | improvement of insulin-stimulated glucose disposal compared to a placebo infusion [4] [%] |
| --- | --- | --- | --- | --- | --- | --- |
| N=C(N)Nc1ccc2[nH]c3c(c2c1)C[C@@]1(O)C2Cc4ccc(O)c5c4[C@@]1(CCN2CC1CC1)[C@H]3O5 [GNTI.2LA, GNTI Dilipoate] | not significantly different | selectively antagonize the different kappa agonists | not significantly affected | – | – | – |
| O=C(O)CCCCC1CCSS1 (centres unmarked) [LA, 1,2-dithiolane-3-pentanoic acid] | – | – | – | 25 | improved insulin sensitivity | 50 |
| Cl.Cl.NC(N)=Nc1ccc2[nH]c3c(c2c1)C[C@@]1(O)[C@H]2Cc4ccc(O)c5c4[C@@]1(CCN2CC1CC1)[C@H]3O5 [GNTI.2HCI] | – | selectively antagonize the different kappa agonists | not significantly affected | – | – | – |

Reference: patent publication US10034871B2, “Salts and compositions useful for treating disease” (REGENTS OF THE UNIVERSITY OF MINNESOTA, priority 2014, dated 2018)
